# Measurements: patent publication US10206944B2, “Chondroitin for use in medicine” (ALTERGON S.A., priority 2012, dated 2019)
# “Also recorded” adds a separate entry of the source.
# Tests used:
# [1] = test system: 5 strains of Salmonella typhimurium; test: Ames' test; assay type: cell-based; conditions: up to 2.0 mg/plate, with and without metabolic activation
# Method: The chondroitin mutagenicity studies were conducted on different mutagenicity and genotoxicity models in vitro and in vivo (Sirtori C., File CONDRAL®, Vol. IV—Reproductive Toxicity and Mutagenesis; Slater E. et al., Rapid detection of mutagens and carcinogens, Cancer Res. 1971, 31: 970-973).
# In vitro test, Ames' test—The test was performed with and without metabolic activation on 5 strains of Salmonella typhimurium. Chondroitin was tested at concentrations of between 2.0 μg/plate and 2.0 mg/plate.
# Sprague Dawley rats = test: Subacute toxicity study, 30 days; assay type: in vivo, rat
# Method: Subacute toxicity study—The study was performed on the rat by administering chondroitin orally (p.o.) and intramuscularly (i.m.). For each of the two studies the animals (Sprague Dawley rats) were divided into 4 groups formed by 15 males and 15 females; chondroitin at the concentration of 50, 100 and 200 mg/Kg respectively was administered to the first 3 groups, and the carrier alone to the fourth group; the administration volume was 10 mL/Kg for p.o. administration and 5 mL/Kg for i.m. administration. Daily administration continued for 30 days. The doses used represent up to 20 times the human therapeutic dose. The general state of health and behaviour of the treated animals were monitored daily, and weight variations, haematological status and urine were evaluated every 5 days. […] At the end of the study all animals were euthanized and an autopsy and histopathological analysis of the main organs (lungs, heart, liver, ovaries, uterus, testicles, kidneys and pituitary gland) were conducted. None of these evaluations indicated any significant differences between the animals treated with chondroitin and the control animals which received the carrier alone.
# [2] = test system: volunteers suffering from dry eye; test: Ophthalmic eyedrops in volunteers suffering from dry eye; assay type: in vivo, human
# Method: Two ophthalmic preparations were compared: a conventional one based on hyaluronic acid and one based on chondroitin, both at the concentration of 3% w/v in NaCl saline solution at pH 7.4. The eyedrops were prepared in single-dose packaging sterilised in the autoclave. […] The volunteers, of both sexes, aged between 45 and 60 years, were randomised into two groups of 15, and treated with the two types of eyedrops. Under medical control the inflammatory state of the corneal surface was evaluated at the beginning and end of the treatment, and the evaluations of the treated patients relating to tolerability, duration of the wetting effect, and visual alteration after application, were recorded. A scale of 1 to 5 was used for the clinical evaluations and the patients' evaluations, where 5 represents optimum resolution of the pathological condition and its sequelae. […]
# Wistar rats = test: Study of fertility and reproductive capacity; assay type: in vivo, rat
# Method: Study of fertility and reproductive capacity—The toxicology study of the possible effects of chondroitin on male fertility and female reproductive capacity was conducted on 200 Wistar rats (160 females and 40 males), randomised into four groups, each consisting of 40 females and 10 males, treated with 0, 50, 100 or 200 mg/Kg of chondroitin. Each group of female rats was divided in turn into two sub-groups of 20 animals; the first group received the product daily from the 14th day before the start of the mating period until the 19th day of gestation, and the second received it until the 21st day after the birth. All the males were treated with chondroitin for 60 days before mating and throughout the gestation period of the females. The protocol used follows the guidelines of Directive EEC 85/571.
substance,measurement,setting,value
chondroitin,point-reverse mutation (Ames' test),[1],do not induce a specific point-reverse mutation; also recorded: Up to 2.0 mg/plate: no point-reverse mutation
same,"subacute toxicity, conclusion","Sprague Dawley rats; rat, 50, 100 and 200 mg/Kg p.o. and i.m., 30 days",non-toxic at the doses used
same,"No toxicity (dose), subacute 30 days","Sprague Dawley rats; rat, p.o. and i.m., daily for 30 days",No toxicity >200 mg/kg/day p.o. and i.m.
same,Doctor: corneal inflammation,"[2]; 0 days, 3% w/v eyedrops, scale of 1 to 5, 5 optimum",1.1 ± 0.2
same,Patient: absence of visual alteration,"[2]; 10 days, scale of 1 to 5",4.6 ± 0.2
same,Patient: tolerability,"[2]; 10 days, scale of 1 to 5",4.7 ± 0.2
same,Patient: wetting effect,"[2]; 10 days, scale of 1 to 5",4.8 ± 0.3
same,Patient: absence of visual alteration,"[2]; 20 days, scale of 1 to 5",4.7 ± 0.1
same,Patient: tolerability,"[2]; 20 days, scale of 1 to 5",4.5 ± 0.5
same,Patient: wetting effect,"[2]; 20 days, scale of 1 to 5",4.6 ± 0.2
same,Doctor: corneal inflammation,"[2]; 30 days, 3% w/v eyedrops 4 times a day, scale of 1 to 5",4.2 ± 0.3
same,Patient: absence of visual alteration,"[2]; 30 days, scale of 1 to 5",4.8 ± 0.1
same,Patient: tolerability,"[2]; 30 days, scale of 1 to 5",4.8 ± 0.1
same,Patient: wetting effect,"[2]; 30 days, scale of 1 to 5",4.9 ± 0.1
same,effect on fertility of male rats,"Wistar rats; daily oral administration for 60 days, up to 200 mg/Kg","no effect on the fertility of male rats; also recorded: the dose of 200 mg/Kg, has no effect on the fertility of male"
same,effect on reproductive capacity of females,"Wistar rats; daily up to 200 mg/Kg, 15 days before mating to 21st day of lactation",no effect on the reproductive capacity of females; also recorded: no effect on the reproductive capacity of the females
